Where “and” joins values, the source holds several entries; their conditions need not be identical. Equal entries are not always repeated. Where two headings read alike, the source gives them in different places.
Experiments:
in vivo [1] = details: mouse
[2] = in vivo
[3] = system: Guinea Pig Intradermal Wheals; details: in vivo
Female Mice = details: mouse, in vivo
Cat = details: in vivo
tissue = details: in vivo
rat sciatic nerve = details: in vivo
[4] = system: isolated frog sciatic nerve; set-up: species or system Rana pipiens; details: for Greatest Depth of Block (% of action potential): frog, sciatic nerve
in vivo [5] = details: mouse, ip
[6] = system: brain and the spinal cord; details: in vivo
Sheep = details: in vivo
Dog = details: in vivo
in vivo [7] = details: rat, sc
guinea pigs = details: guinea pig, in vivo, sc, 646 mg/kg

| SMILES | LD50 (in vivo [1]; ip) [mg/kg] | LD50 (in vivo [1]; iv) [mg/kg] | LD50 (in vivo [1]; sc) [mg/kg] | Local anaesthetic effect (in words) [2] | Duration of guinea pig intradermal wheals [3] | Duration of Block of Support of Weight (Cat) | Tissue irritation (in words) (tissue) | Duration (rat sciatic nerve) | Frequency (rat sciatic nerve) | Onset (rat sciatic nerve) | Average time for 80% recovery of action potential [4] [min] | also measured |
| --- | --- | --- | --- | --- | --- | --- | --- | --- | --- | --- | --- | --- |
| Cc1cccc(C)c1NC(=O)CNC(C)(C)C [A, 2-(tert.-butylamino)-2',6'-acetoxylidide] | 119 | 35.4 | 141 | unusually long-lasting local anaesthetic effect | 129 ± 14 min and 148 ± 20 min and 186 ± 17 min and 197 ± 14 min | 54 ± 9 min and 104 ± 29 min | quite satisfactory | 126 ± 12 and 157 ± 18 | 5/5 | 5 min | – | Intravenous toxicity (in words) (Female Mice; iv): unusually low intravenous toxicity |
| CCN(CC(=O)Nc1c(C)cccc1C)C(C)(C)CC [C, 2-(N-ethyl-tert.-amylamino)-2',6'-acetoxylidide] | 81 | 7.4 | – | unusual, long-lasting local anaesthetic effect and high local anaesthetic activity | 158 ± 49 min and 230 ± 32 min and 301 ± 11 min | 220 ± 64 min and 298 ± 56 min | satisfactory low level of tissue irritation | – | – | – | 29 | Duration of anaesthesia (in words) [2]: significantly longer duration than compounds A and B; Greatest Depth of Block (% of action potential) ([4]; 20000 µM): 77%; Acute toxicity (in words) (Female Mice): satisfactory low acute toxicity; Duration of Block of Support of Weight, 1 animal outside the mean (Cat): > 7 h; Irritation compared with bupivacaine (tissue): not more irritating than bupivacaine at 0.5% concentration; Duration of rat sciatic nerve block (days) (rat sciatic nerve): 1 to 8 days |
| Cc1cccc(C)c1NC(=O)C(C)NC(C)(C)C (centres unmarked) [Compound B, 2-(tert.-butylamino)-2',6'-propionoxylidide] | – | – | – | – | – | – | – | 128 ± 13 and 133 ± 7 | 5/5 | 3 min and 2 min | – | LD50 (in vivo [5]): 61 mg/kg; Guinea Pig Wheal Duration [3]: 139 ± 24 and 160 ± 43 and 184 ± 36; Guinea Pig Wheal Frequency [3]: 12/12; Adverse signs in rat sciatic test (rat sciatic nerve): Depression, ataxia, loss of righting reflex in some animals; Rat Sciatic Frequency (rat sciatic nerve): 8/10 and 10/10 |
| CCCN(CC(=O)Nc1c(C)cccc1C)C(C)(C)CC [Compound D, 2-(N-n-propyl-tert.-amylamino)-2',6'-acetoxylidide] | 39 | 6.8 | 109 | unusual, long-lasting local anaesthetic effect and high local anaesthetic activity | 171 ± 26 min and 227 ± 21 min and 253 ± 16 min and 303 ± 19 min | – | satisfactory low level of tissue irritation | – | – | – | 163 | Pathological change in brain and spinal cord [6]: no pathological change attributable to the drugs was found; Duration of anaesthesia (in words) [2]: significantly longer duration than compounds A and B; Greatest Depth of Block (% of action potential) ([4]; 5000 µM): 96%; Duration of block of Digital Pain (Sheep): 45 to 60 min; Onset time (Sheep): 5 to 10 min; Acute toxicity (in words) (Female Mice): satisfactory low acute toxicity; Irritation compared with bupivacaine (tissue): not more irritating than bupivacaine at 0.5% concentration; Duration of block, 2 animals outside the mean (rat sciatic nerve): 10 to 13 days; Duration of rat sciatic nerve block (rat sciatic nerve): 217 ± 25 min and 124 ± 50 min and 157 ± 30 min; Duration of rat sciatic nerve block (days) (rat sciatic nerve): 8 to 27 days and 13 to 30 days; Duration of block of Digital Pain (Dog): 1 to 2 days; Duration, Digital Pain (Dog): 289 min and 338 min; Duration, Scrotal Pain (Dog): 218 min and 226 min; Recovery of the animals (Dog): All animals recovered completely |
| CCCCN(CC(=O)Nc1c(C)cccc1C)C(C)(C)C [Compound E, 2-(N-n-butyl-tert.-butylamino)-2',6'-acetoxylide] | – | – | – | – | – | – | – | – | – | – | – | Pathological change in brain and spinal cord [6]: no pathological change attributable to the drugs was found; LD50 (in vivo [5]): 284 mg/kg; LD50 (in vivo [7]): 1070 mg/kg; Survival (guinea pigs): all animals survived; Duration of rat sciatic nerve block, Mean ± S.D. (rat sciatic nerve): 174 ± 26 min and 200 ± 18 min and 237 min; Frequencies and durations (in words) (rat sciatic nerve): Frequencies and durations were good; Frequency of rat sciatic nerve block (rat sciatic nerve): 9/10 and 10/10; Duration of block of Digital Pain (Dog): 1 to 2 days; Recovery of the animals (Dog): All animals recovered completely |
| CCC(C)(C)NCC(=O)Nc1c(C)cccc1C [Compound F, 2-(N-tert.-amylamino)-2',6'-acetoxylidide] | – | – | – | – | – | – | – | 97 ± 4 and 101 ± 8 | 6/6 | 3 min and 2 min | – | – |
| CCCCN1CCCCC1C(=O)Nc1c(C)cccc1C (centres unmarked) [X, N-n-butylpipecolyl-2,6-xylidide, reference compound] | 40 | 6.4 | 45 | – | 182 ± 4 min and 252 ± 5 min and 314 ± 10 min | – | – | – | – | – | 65 | Greatest Depth of Block (% of action potential) ([4]; 5000 µM): 64%; Toxic effects (Cat): Toxic effects observed |
| CCN(CC)CC(=O)Nc1c(C)cccc1C [Y, diethylaminoaceto-2,6-xylide, reference compound] | – | – | – | – | 78 ± 9 min and 110 ± 13 min and 117 ± 6 min and 121 ± 12 min | 88 ± 10 min | – | – | – | – | – | – |

Source: US3988473A (priority 1975, dated 1976)
